The text below walks through data of PMC11880385 (Nature Communications, 2025).

In brackets after ≈: the same amount, converted by molar mass. Entries after “also recorded” stand apart in the source; their conditions may differ.

The target in series [1] is T1, C. albicans Yck2 kinase domain (Candida albicans, UniProt A0A1D8PKB4).
T1 sequence (A0A1D8PKB4 37-345): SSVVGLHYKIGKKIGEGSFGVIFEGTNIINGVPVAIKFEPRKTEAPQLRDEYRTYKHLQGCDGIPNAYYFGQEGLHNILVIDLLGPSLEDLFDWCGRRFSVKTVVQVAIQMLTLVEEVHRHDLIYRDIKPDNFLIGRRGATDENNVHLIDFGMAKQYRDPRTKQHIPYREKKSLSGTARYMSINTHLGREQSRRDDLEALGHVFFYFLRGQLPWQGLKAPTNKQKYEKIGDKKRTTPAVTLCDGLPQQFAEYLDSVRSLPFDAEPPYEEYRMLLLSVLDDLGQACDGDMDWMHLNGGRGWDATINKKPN
Nature of the series: biochemical. The class given is biochemical. Conditions: for CaYck2 IC50: two-fold dose-response up to 1 µM, ATP 20 μM (Km).

Series [2] concerns C. albicans Yck2 kinase domain. In words: biochemical. The class given is biochemical, Candida albicans. Particulars: Ratio of HsCK1α IC50 / CaYck2 IC50.
For a further series, the target named is human CK1α (Homo sapiens, UniProt P48729). Nature of the series: HsCK1α kinase inhibition assay. Format: biochemical.
Chain of human CK1α (P48729 whole entry): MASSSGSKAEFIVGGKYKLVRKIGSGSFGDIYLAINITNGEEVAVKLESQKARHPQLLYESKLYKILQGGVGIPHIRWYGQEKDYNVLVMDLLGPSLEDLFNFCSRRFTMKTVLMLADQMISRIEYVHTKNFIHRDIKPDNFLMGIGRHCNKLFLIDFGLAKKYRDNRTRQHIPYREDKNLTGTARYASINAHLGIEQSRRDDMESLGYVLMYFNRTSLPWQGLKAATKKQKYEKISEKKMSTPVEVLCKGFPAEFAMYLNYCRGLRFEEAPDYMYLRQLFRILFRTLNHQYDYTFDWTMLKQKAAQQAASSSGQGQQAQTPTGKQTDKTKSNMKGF
Series [3] in a line: Mouse liver microsomal stability assay. Particulars: mouse liver microsomes; for remaining at 0.5 h, 1 µM: mouse.
In the next series the test system is C. albicans (CaSS1). Nature of the series: C. albicans growth inhibition, two-fold dose-response assay. Particulars: for MIC80: Candida albicans, 48 h, read-out: C. albicans MIC80.

The IC50 is the concentration needed to halve the response being measured. The amount remaining is the share of the starting amount still present when the sample was taken. A higher amount remaining goes with less turnover. The MIC80 is the lowest concentration that inhibits either 80% of growth or 80% of the strains tested, depending on the study. For the molecule `COc1ccn2c(-c3ccncc3)c(-c3ccc(F)cc3)nc2c1` [Compound 1b], the IC50 in series [1] was found to be 260 nM; on human CK1α, 1 µM. Moreover, the “Fungal selectivity (fold)” value in series [2] is 3.9 fold. In addition, the fraction remaining at 0.5 h, 1 µM in series [3] worked out at 2%. Further, the MIC80 in the series with C. albicans (CaSS1) was 50 µM (≈ 16 µg/mL). For the same molecule, the “whole-cell antifungal activity against C. albicans” value (“whole-cell antifungal activity” below) in the series on C. albicans (CaSS1) (RPMI, 37 °C, 5% CO2) was “robust anti-C. albicans bioactivity”.

Molecule `Cc1ccn2nc(-c3ccc(F)cc3)c(-c3ccncc3)c2c1` [Compound 2f] had an IC50 against human CK1α of 2 µM. For the same molecule, in series [3] (30 minutes, 1 μM), the metabolic stability category result is listed as “unstable (compound concentration remaining in the microsomal suspension after incubation for 30 minutes was ≤ 50% of the starting concentration (1 μM))”. The amount remaining at 0.5 h, 1 µM in series [3] was found to be 1%.

As to `COc1cccn2nc(-c3ccc(F)cc3)c(-c3ccncc3)c12` [Compound 2n], the IC50 is 120 nM in series [1] and 4.9 µM on human CK1α. Besides, the “Fungal selectivity (fold)” value in series [2] worked out at 41 fold. Besides, the amount remaining at 0.5 h, 1 µM in series [3] was 1%. Further, the MIC80 with C. albicans (CaSS1) is 25 µM (≈ 7.98 µg/mL).

Turning to `Fc1ccc(-c2nn3cc(C(F)(F)F)ccc3c2-c2ccncc2)cc1` [Compound 2c], in series [1], the IC50 was > 1000 nM and the “CaYck2 IC50” value is reported as “above the maximum concentration tested”. Further, in the series on C. albicans (CaSS1), the MIC80 was > 100 µM. Further, the “whole-cell antifungal activity” value in the series with C. albicans (CaSS1) (RPMI, 37 °C, 5% CO2) is “little to no whole-cell antifungal activity; also recorded: loss of bioactivity”.

Take `CCCc1ccn2c(-c3ccncc3)c(-c3ccc(F)cc3)nc2c1` [Compound 1i]: in series [3], the amount remaining at 0.5 h, 1 µM stood at 0%. Also, in the series with C. albicans (CaSS1), the MIC80 was > 100 µM.

As to `CC(C)(C)c1ccn2c(-c3ccncc3)c(-c3ccc(F)cc3)nc2c1` [Compound 1c], the IC50 in series [1] stood at 700 nM; at human CK1α it was 6.1 µM. Moreover, in series [2], the “Fungal selectivity (fold)” value is listed as 8.6 fold. The molecule also came in with a share remaining at 0.5 h, 1 µM in series [3] of 67%. Moreover, in the series on C. albicans (CaSS1), the MIC80 is > 100 µM.

Turning to `Fc1ccc(-c2nn3ccc(C(F)(F)F)cc3c2-c2ccncc2)cc1` [Compound 2h], in series [1], the half-maximal inhibitory concentration (IC50) is > 1000 nM and the “CaYck2 IC50” value is listed as “above the maximum concentration tested”. Besides, the IC50 at human CK1α was > 15 µM. Also, in the series with C. albicans (CaSS1) (RPMI, 37 °C, 5% CO2), the “whole-cell antifungal activity” value is reported as “little to no whole-cell antifungal activity”.

In the case of `Oc1ccn2nc(-c3ccc(F)cc3)c(-c3ccncc3)c2c1` [Compound 2k], the MIC80 with C. albicans (CaSS1) is > 100 µM. The “whole-cell antifungal activity” value in the series with C. albicans (CaSS1) (RPMI, 37 °C, 5% CO2) is recorded as “no measurable whole-cell activity”.

Take `Fc1ccc(-c2nc3cc(C(F)(F)F)ccn3c2-c2ccncc2)cc1` [Compound 1g]: the results for the half-maximal inhibitory concentration (IC50) (in series [1]; against human CK1α) were 630 nM and 8.4 µM, respectively. In addition, the “Fungal selectivity (fold)” value in series [2] is 13 fold. In series [3], this molecule displayed a fraction remaining at 0.5 h, 1 µM of 84%. Further, the MIC80 in the series with C. albicans (CaSS1) is > 100 µM. The “whole-cell antifungal activity” value with C. albicans (CaSS1) (RPMI, 37 °C, 5% CO2) is recorded as “loss of bioactivity”.

In the case of `COc1ccc2c(-c3ccncc3)c(-c3ccc(F)cc3)nn2c1` [Compound 2d], the MIC80 in the series with C. albicans (CaSS1) turned out to be 12.5 µM (≈ 3.99 µg/mL). Moreover, the “whole-cell antifungal activity” value in the series with C. albicans (CaSS1) (RPMI, 37 °C, 5% CO2) was “robust anti-C. albicans bioactivity”.

For `Oc1ccc2c(-c3ccncc3)c(-c3ccc(F)cc3)nn2c1` [Compound 2e], the MIC80 with C. albicans (CaSS1) was > 100 µM. Moreover, in the series with C. albicans (CaSS1) (RPMI, 37 °C, 5% CO2), the “whole-cell antifungal activity” value was “no measurable whole-cell activity”.

`Fc1ccc(-c2nc3cc(C4CC4)ccn3c2-c2ccncc2)cc1` [Compound 1h]: in series [1], the midpoint of inhibition, the IC50, lay at 180 nM. This molecule had a share remaining at 0.5 h, 1 µM in series [3] of 0%. Besides, the MIC80 with C. albicans (CaSS1) is 50 to 100 µM (≈ 16.5 to 32.9 µg/mL). Also, the “concentration at which bioactivity was retained” value in the series on C. albicans (CaSS1) (RPMI, 37 °C, 5% CO2) is 50 µM.

As for `Fc1ccc(-c2nn3cccc(F)c3c2-c2ccncc2)cc1` [Compound 2m], in series [2], the “Fungal selectivity (fold)” value was 27 fold. In addition, the MIC80 with C. albicans (CaSS1) amounted to 25 µM (≈ 7.68 µg/mL).

For the molecule `N#Cc1cccn2nc(-c3ccc(F)cc3)c(-c3ccncc3)c12` [Compound 2o], in series [1], the 50% inhibitory concentration (IC50) is > 1000 nM and the “CaYck2 IC50” value is “above the maximum concentration tested”. For the same molecule, the half-maximal inhibitory concentration (IC50) on human CK1α was > 15 µM. Besides, in the series on C. albicans (CaSS1) (RPMI, 37 °C, 5% CO2), the “whole-cell antifungal activity” value is “little to no whole-cell antifungal activity”.
